These results are taken from the METLIN SMRT retention time set (Domingo-Almenara et al. 2019).

This data set can be described thus: gradient 5% acetonitrile 3 min, to 50% in 2 min, to 85% in 15 min, held 3 min, 100 µL/min. Particulars: column: Zorbax Extend-C18 2.1 x 50 mm; eluents: water / acetonitrile, 0.1% formic acid. The essentials:
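Retention time was recorded from adduct peaks, which were picked computationally and each inspected manually. Pure standards ran in mixtures of ~100 molecules on HPLC coupled to a quadrupole time-of-flight mass spectrometer, in positive and negative ionization mode, through a Zorbax Extend-C18 column (2.1 × 50 mm, 1.8 μm) at 100 μL/min. Eluents were water and acetonitrile, each with 0.1% formic acid.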
`O=C(c1ccc2nsnc2c1)N(Cc1ccsc1)C1CC1` registered an RP-LC retention time of 861 s.

On to `COc1cccc(CNC(=O)CCc2c(-c3ccc(Br)cc3)nc3ccccn23)c1`, for which the RP-LC retention time turned out to be 698 s.

Regarding `CCCN(CC1CCOC1)C(=O)Nc1cc(C)ccc1C` (stereo not given), the RP-LC retention time came to 796 s.

As to `CCN(CC)C(=O)N1CC(Oc2ccccc2-c2nc(-c3cnccn3)no2)C1`, the RP-LC retention time was determined as 784 s.

For `Cc1cc2nn(CC(=O)N3CCc4ccccc43)c(=O)n2c(Nc2ccccc2C)n1`, the RP-LC retention time was found to be 1080 s.

Compound `Cc1cnn(Cc2nc(-c3ccc(NC(=O)c4ccc(C)s4)cc3)oc2C)c1` showed an RP-LC retention time of 940 s.

`O=C(CS(=O)Cc1cnn(-c2ccccc2)c1-n1cccc1)N1CCC(Cc2ccccc2)CC1` (stereo not given) displayed an RP-LC retention time of 1010 s.

Compound `CCN1CCn2cc(S(=O)(=O)Nc3cccc(C#N)c3)cc2C1=O` returned an RP-LC retention time of 680 s.

Consider `COc1ccccc1C(=O)N1CCCC1c1nc(-c2ccc(F)cc2F)no1` (stereo not given), for which the RP-LC retention time turned out to be 1020 s.

For the compound `CCc1ccc(NC(=O)C2Cc3cc(S(=O)(=O)N4CCCCC4)ccc3N2C(C)=O)cc1` (stereo not given), the RP-LC retention time worked out at 864 s.

Compound `Cc1nc(C)c(C(=O)NCC23CCC=C2N(CC2CC2)C(=O)CC3)s1` (stereo not given) registered an RP-LC retention time of 757 s.

The compound `CCCCNC(=O)NC1CCS(=O)(=O)C1` (stereo not given) registered an RP-LC retention time of 571 s.

`O=C(CN1c2ccc(F)cc2-c2ccccc2S1(=O)=O)NCc1ccccc1` came in with an RP-LC retention time of 939 s.

Consider `Cc1c(Cl)cccc1NC(=O)c1ccc(-n2ccnc2)nn1`, for which the RP-LC retention time was determined as 652 s.

The compound `CC(C)CC(=O)Nc1cnc(N2CCCCCC2)nc1` yielded an RP-LC retention time of 823 s.

On to `COCCN1C(=O)CCc2cc(NS(=O)(=O)c3ccccc3)ccc21`, for which the RP-LC retention time worked out at 716 s.

Consider `COC(=O)COC(=O)c1cn(-c2ccc(F)cc2)c(=O)c2ccccc12`, for which the RP-LC retention time turned out to be 919 s.

`CN(c1ccccc1)c1nc(=O)n(CC(=O)Nc2ccc3c(c2)OCCO3)c2ccccc12` displayed an RP-LC retention time of 785 s.

Compound `Cc1cc(C(=O)NCc2cc(F)cc(F)c2)nc2cc(-c3cccs3)nn12` had an RP-LC retention time of 1120 s.

On to `COc1cc(NC(=O)CN2C(=O)C(C)(C)c3cc(Cl)ccc32)cc(OC)c1OC`, for which the RP-LC retention time came out at 867 s.

Compound `O=C(NCc1ccc(N2CCOCC2)cc1)c1cn2c(n1)CSCC2` had an RP-LC retention time of 604 s.

`CC(=O)N1CCc2cc(N3CC(C(=O)Nc4ccc(F)cc4F)CC3=O)ccc21` (stereo not given) had an RP-LC retention time of 688 s.

`Cc1nn(C)c(C)c1CCNC(=O)Nc1ccc(Br)cc1` returned an RP-LC retention time of 674 s.

On to `CC(NC(=O)C1CCN(C(=O)c2ncn3c2COC(c2ccccc2)C3)CC1)c1ccc(F)cc1` (stereo not given), for which the RP-LC retention time was found to be 848 s.

`CC(C)COc1ccc(S(=O)(=O)N2CCOC(c3ccccc3)C2)cc1` (stereo not given) displayed an RP-LC retention time of 560 s.

`COc1cccc(NC(=O)C2CC(=O)N(c3n[nH]c4cccc(F)c34)C2)c1` (stereo not given) returned an RP-LC retention time of 737 s.

Consider `COc1ccc(-n2nc(C(=O)N3CCN(c4ccccn4)CC3)c(=O)n(C)c2=O)cc1`, for which the RP-LC retention time was 623 s.

The compound `CCn1c(CCNC(=O)c2cc(Cl)ccc2F)nc2cccnc21` showed an RP-LC retention time of 661 s.

In turn, `CCc1ccc(-c2cc(C(=O)N3CCCN(c4ccc(=O)n(-c5ccc(C)cc5)n4)CC3)[nH]n2)cc1` came in with an RP-LC retention time of 873 s.

Compound `O=C1C2N=NN(Cc3nc(-c4ccccc4Cl)no3)C2C(=O)N1c1ccc2c(c1)CCC2` (stereo not given) gave an RP-LC retention time of 1070 s.

In turn, `O=c1n(Cc2ccccc2Cl)nc2ccc(S(=O)(=O)N3CCCCC3)cn12` displayed an RP-LC retention time of 979 s.

Turning to `Cc1ccc(CN2CCC(CNC(=O)c3c(C)oc4c3C3=NCCN3C=N4)C2)cc1` (stereo not given), the RP-LC retention time turned out to be 597 s.

`O=C(Cn1c(=O)c2cc(C3CC3)nn2c2ncccc21)Nc1cc(F)cc(F)c1` yielded an RP-LC retention time of 815 s.

For `CCc1noc(NC(C)=O)c1-c1ccc(OC)c(S(=O)(=O)Nc2ccc(Cl)cc2F)c1`, the RP-LC retention time was found to be 842 s.

As to `Cc1cccc2c1cnn2C(=O)CCC(=O)N1CCN(c2ccccn2)CC1`, the RP-LC retention time is 632 s.

Compound `CCOC(=O)CNC(=O)N1CCCCCC1c1cccc(C)c1` (stereo not given) came in with an RP-LC retention time of 931 s.

Compound `COc1ccc(C(C)NC(=O)Cc2c[nH]c3ncccc23)cc1OC` (stereo not given) registered an RP-LC retention time of 664 s.

Regarding `CCCNC(=O)CC1CCN(C(=O)c2[nH]c(C)c(C(=O)OC)c2C)CC1`, the RP-LC retention time worked out at 657 s.

Turning to `CNC(=O)O[C@H]1COc2ccc(N3CCN(C4COC4)CC3)cc2[C@@H]1NC(=O)c1ccc(F)cc1`, the RP-LC retention time was determined as 652 s.

For `CCc1c(C(=O)O)nnn1-c1ccc(C)c(C)c1`, the RP-LC retention time was 783 s.

For the compound `COCCNC(=O)CS(=O)Cc1cnn(-c2ccccc2)c1-n1cccc1` (stereo not given), the RP-LC retention time came out at 678 s.

`CCNc1cc(N2CCCC(CCC(=O)N(C)Cc3cn(C)nc3C)C2)ncn1` (stereo not given) had an RP-LC retention time of 598 s.

As for `CCS(=O)(=O)c1nc2ccc(NS(=O)(=O)c3ccc(F)cc3Cl)cc2s1`, the RP-LC retention time is 890 s.

`Cc1c(Cl)cccc1S(=O)(=O)Nc1ccccc1N1CCNC(=O)C1` came in with an RP-LC retention time of 738 s.

`CCCCN1CCN(S(=O)(=O)c2cc(-c3nnc(C4CC4)o3)co2)CC1` returned an RP-LC retention time of 633 s.

Compound `CCOC(=O)N1CCC(Nc2c(C(=O)OC)c(=O)[nH]c3ccc(F)cc23)CC1` showed an RP-LC retention time of 705 s.

On to `COc1ccc(C(=O)Nc2sc3ccccc3c(=O)c2-c2cccs2)cc1OC`, for which the RP-LC retention time amounted to 951 s.

In the case of `Cc1c(CN2CC3(CCCCC3)CC2COc2ccncc2)cnn1C` (stereo not given), the RP-LC retention time worked out at 565 s.

Consider `CC(C(=O)Nc1c(F)cccc1F)C1CCN(C(=O)Nc2ccc(Cl)cc2)CC1` (stereo not given), for which the RP-LC retention time was 865 s.

Compound `CCSCC[C@@H](NC(=O)CCc1c(C)c2ccc(O)c(C)c2oc1=O)C(=O)O` registered an RP-LC retention time of 680 s.

On to `Cc1nc(C)c(C(=O)Nc2nc(-c3ccc(Cl)cc3)c(C)s2)s1`, for which the RP-LC retention time came out at 1060 s.

`O=C(Nc1cc(-c2ccsc2)no1)c1ccc(C(F)(F)F)cc1` registered an RP-LC retention time of 1060 s.

Compound `COC(=O)c1cnn(-c2cccc(C)c2)c1-n1cccc1` showed an RP-LC retention time of 964 s.

In turn, `CN(C)C(=O)N1CC(c2nc(-c3ccc(F)cc3)no2)C2(CCOCC2)C1` (stereo not given) yielded an RP-LC retention time of 790 s.

As for `Cc1ccc(-c2cc3n(n2)CCCN(C(=O)c2ccncc2)C3)cc1`, the RP-LC retention time came to 689 s.

On to `Cc1ccc(CN2C(=O)NC3(CCN(C(=O)c4ccc[nH]4)CC3)C2=O)cc1`, for which the RP-LC retention time stood at 767 s.

Turning to `CN1C(=O)c2cc(S(=O)(=O)Nc3ccccc3)ccc2Oc2cccnc21`, the RP-LC retention time worked out at 862 s.

`COC(=O)c1ccc2c(=O)n(-c3ccc(C)c(F)c3)c(N3CCSCC3)nc2c1` came in with an RP-LC retention time of 1100 s.

For the compound `Cc1cnc2c(N)cc(C)c(C)c2c1`, the RP-LC retention time turned out to be 715 s.

The compound `O=C(Nc1nnc(SCc2nnc(-c3ccccc3)o2)s1)c1cccc(Cl)c1` gave an RP-LC retention time of 977 s.
